Measurements taken from US6906108B2, “Extracts of vetiver oil as repellent and toxicant to ants, ticks, and cockroaches” (Board of Supervisors of Louisiana State University and …, priority 2001, dated 2005).

Key:
[1] = system: ticks (Ixodes scapularis); assay: Tick Petri dish bioassay with treated sand (repellency and toxicity); type: in vivo
Method: To test the effectiveness of nootkatone against ticks, ticks (Ixodes scapularis) were collected from Idlewild, La. Nootkatone efficiacy was tested relative to a known repellent, N,N-diethyl-m-toluamide (“Deet”). REPEL®, which contains 27.55% Deet, was purchased locally from a retail garden store.
The bioassay was conducted using Petri dishes (5 cm diameter and 1 cm height). To ensure adequate moisture for the ticks, 1 ml of a hot agar solution (1.5% in H2O) was spread evenly on the inside surfaces of the Petri dish, including the top, bottom, and edges. After the agar cooled, sand that was treated as described below was spread evenly on the inside surfaces of the Petri dish. The sand was held in place by the agar.
For the treated sand, either 2 mg nootkatone or 100 mg REPEL® was initially dissolved in 2 ml ethanol, and then 200 μl of the solution was mixed with 2 g sand that had been autoclaved and cooled. The control was autoclaved sand with 200 μl ethanol only added. One half of the surfaces in the Petri dishes were covered with 2 g treated sand, and the other half with 2 g untreated sand. In the nootkatone-treated Petri dishes, the final concentration was 200 μg/dish; while in the Deet treated Petri dishes, the final concentration was 2.75 mg/dish. Control Petri dishes were prepared by covering all sides with untreated sand. One tick was added to each Petri dish, and the top replaced. The number of replicates were as follows: control, 6; nootkatone, 9; and Deet, 8. […] Repellent activity was noted if the tick was found on the untreated side of the Petri dish. The ticks in the control Petri dishes were randomly distributed on the left and right sides.
The above experiment was repeated with ticks (Ix. scapularis) collected from Hammond, La. The number of replicates in this experiment were as follows: controls, 8; nootkatone, 10; and Deet, 8.

[2] = system: Imported red fire ants, Solenopsis invicta; assay: Fire ant three-chambered container bioassay with treated sand (repellency and mortality); type: in vivo; details: for Percent ants in the sand area after 15 min / Number of ants (% ± SE) in the sand area after 15 min (test after 40 days): mean ± SE; for Living ants found in the sand area over seven days: FIG. 1; for Living ants found in the sand area over 7 days: FIG. 3
Excerpt: Nootkatone was purchased from a commercial source (Lancaster Synthesis Inc. Windham, N.H.). The source of the vetiver oil was The Good Scents Company (Oak Creek, Wis.). Three-chambered clear plastic containers (17×8×4 cm; Pioneer Packaging Co., North Dixon, Ky.) were used to test the effect of nootkatone and vetiver oil on the fire ants. Each rectangular container (17×8×4 cm) was divided into three equal compartments with two inner walls. A small hole (0.5 cm diameter) was melted at the bottom of each of the inner walls to permit fire ant access to all chambers. The top inner sides of the containers were coated with FLUON® (Northern Products, Inc., Woonsocket, R.I.) to prevent ants from escaping. Into the far left chamber, designated the “nest area,” was placed a 55 mm #2 Whatman filter paper circle (Whatman International, Maidstone, England) moistened with 0.5 ml ddH2O to serve as a substrate. For a food source, a second 55 mm #2 Whatman filter paper circle was moistened with 0.5 ml 10% sucrose solution and placed in the far right chamber (“feeding area”). In the middle chamber, 30 g of #4 fine blasting sand (Easy Crete, Inc., Greenwell Springs, La.) moistened with 3 ml ddH2O was added. The sand had previously been treated by mixing with ethanol only (the controls) or with ethanol and solutions of nootkatone or vetiver oil to obtain final concentrations of 10 μg/g sand and 100 μg/g sand. The treated sand was allowed to air-dry for 2 hr in a ventilated hood before placing into the container.
Imported red fire ants, Solenopsis invicta, were collected the day before beginning the experiment from two Louisiana colonies (Colony A and Colony B) whose nests were 50 m apart. For each container, 30 workers were placed in the nest area in a small Petri dish (3.5 cm diameter) with the lid closed initially. The total number of containers was 30; 15 for each colony. For each colony, three replicates were established for each of the following treatments: a control; 10 μg/g nootkatone ([…]), 100 μg/g nootkatone (“Noot-100”), 10 μg/g vetiver oil (“Vet-10”), […].
After the ants were acclimated, the lid on the Petri dish was removed. Ant behavior was observed during the first 15 min for the following: time for the first ant to cross into the middle chamber; time for the first ant to cross into the feeding area; and number of ants in the middle chamber after 5, 10, and 15 min. The plastic containers were kept closed with lids in a thermostatic chamber at 27° C. for one week. Each day at the same time, the numbers of live and dead ants in each chamber were noted.
To test for effectiveness of nootkatone and vetiver oil after the passage of time, the above experiment was repeated 40 days later with sand that had been treated at the same time as the above experiment. For 40 days, the sand had been maintained in separate chambers with non-hermetic lids in a dark room at room temperature. For this second experiment, fire ants were freshly collected from two different Louisiana colonies.
The number of ants, expressed as a percent of the total number in the container, found in the treated area after the first 15 minutes was compared using a two-way ANOVA followed by Newman-Keuls post-hoc test, considering the factors “colony” (A, B) and “treatment” (Control, Noot-100, Noot-10, Vet-100, Vet-10). Data for both the number of live and dead ants (expressed as percent of the total) during the seven days of the experiment were analyzed with 2-way ANOVA for repeated measures followed by Newman-Keuls post-hoc tests, considering the variables “colony” and “treatment” and the variable “day” as the repeated factor. All data were analyzed using Statistica 5.5 (1999 edition, Statsoft Inc., Tulsa, Okla.).

[3] = 200 μg/dish vs 2.75 mg/dish Deet
[4] = 200 μg/dish, 10 replicates, ticks from Hammond
[5] = 200 μg/dish, ticks from Hammond

`C=C(C)C1CCC2=CC(=O)CC(C)C2(C)C1` (stereo not shown) [nootkatone, 4,4a,5,6,7,8-hexahydro-6-isopropenyl-4,4a-dimethyl-2(3H)-naphthalone] was tested, and the “Overall activity against ticks” value ([1]; 200 μg/dish) was “effective repellent and toxicant”, the “Duration of repellent activity compared with Deet” value [1, 3] was “longer than Deet” and the “Toxicant strength compared with Deet” value [1, 3] was “stronger toxicant than Deet”. The “Ticks dead after 90 hr (number)” value ([1]; 200 μg/dish, 9 replicates, one tick per dish, ticks from Idlewild) was “four”, the “Ticks dead at 24 hr (number)” value [1, 4] was “one” and the “Ticks dead at 72 hr (number)” value [1, 4] was “four”. The “Ticks dead at 96 hr (number)” value [1, 4] was “nine”, the “Ticks dead at 72 hr (percent)” value [1, 5] was 40% and the “Ticks dead at 96 hr (percent)” value [1, 5] was 90%. For the same compound, the “Ticks dead after 90 hr (percent)” value ([1]; 200 μg/dish, ticks from Idlewild) was 50%, the “Percent ants in the sand area after 15 min” value ([2]; 10 μg/g sand, sand treated 2 hr prior) was 23.89 ± 3.35 b % and the “Number of ants (% ± SE) in the sand area after 15 min (test after 40 days)” value ([2]; 10 μg/g sand, sand treated 40 days prior) was 26.11 ± 3.07 b %. For the same compound, the “Percent ants in the sand area after 15 min” value ([2]; 100 μg/g sand, sand treated 2 hr prior) was 13.33 ± 2.42 b %, the “Number of ants (% ± SE) in the sand area after 15 min (test after 40 days)” value ([2]; 100 μg/g sand, sand treated 40 days prior) was 13.89 ± 1.99 b % and the “Living ants found in the sand area over seven days” value ([2]; highest concentration (100 μg/g), sand treated 2 hr prior) was “Almost no ants”. The “Cumulative mortality over 7 days” value ([2]; highest concentration (100 μg/g), sand treated 2 hr prior, FIG. 2) was “highest”, the “Living ants found in the sand area over 7 days” value ([2]; highest concentration (100 μg/g), sand treated 40 days prior) was “Almost no ants” and the “Cumulative mortality over 7 days” value ([2]; highest concentration (100 μg/g), sand treated 40 days prior, FIG. 4) was “always greatest”. For the same compound, the “Cumulative mortality over 7 days” value ([2]; lower concentration (10 μg/g), sand treated 40 days prior, compared with highest concentration, FIG. 4) was “significantly lower”, the “Living ants found in the sand area over seven days” value ([2]; lowest concentration (10 μg/g), sand treated 2 hr prior, vs controls) was “substantially lower numbers of ants” and the “Living ants found in the sand area over 7 days” value ([2]; lowest concentration (10 μg/g), sand treated 40 days prior, vs controls) was “significantly lower numbers of ants”. For the same compound, the “Effectiveness forty days after the initial application” value ([2]; sand treated 40 days prior) was “still effective”.
